Laboratory results: patent US10117873B2, “6-amino-purin-8-one compounds” (GlaxoSmithKline LLC, priority 2008, dated 2018)

Experiments:
[1] = test system: Interferon-α; test: Induction of Interferon-α using cryopreserved human PBMCs; assay type: cell-based; details: PBMC, 24 h incubation, normalized to 1 uM resiquimod, read-out: mean pEC50 for induction of Interferon-α (converted)
Protocol: Assay for the Induction of Interferon-α Using Cryopreserved Human Peripheral Blood Mononuclear Cells (PBMCs)
Compounds were dissolved in DMSO. Serial 2-fold dilutions with DMSO were prepared and 0.25 μl dispensed into 384-well clear Greiner polypropylene plates.
Blood samples of up to 200 ml were obtained from healthy human donors. Whole blood in 25 ml volumes was overlaid onto 15 ml Ficoll® gradients in Leucosep® tubes, and centrifuged at 1000 g for 20 min. Cells in the band at the plasma/Histopaque® interface were carefully removed and washed twice with PBS (centrifuged at 400 g for 5 min to harvest). The final pellet was resuspended in freezing medium (90% Heat-inactivated serum, 10% DMSO) to a cell concentration of 4×10^7 cells/ml. The resuspended cells were then cryopreserved (frozen) using a rate controlled freezer, and stored at −140° C. for up to 4 months.
Immediately prior to assay, vials of cryopreserved (frozen) PBMCs were thawed rapidly in a water bath at 37° C. A 1:10 dilution of the cells in trypan blue was prepared and counted. The PBMCs were then diluted in growth media [RPMI 1640 containing 10% fetal calf serum (invitrogen), Penicillin+[…] (Gibco cat. #25030-024, 1:50), L-Glutamine 2 mM, and 1000 units/ml recombinant human IFN-gamma (Preprotech catalogue #300-02)] to a density of 1×10^6 cells/ml, and 50 ul/well dispensed to 384-well clear Greiner polypropylene plates containing 0.25 μl DMSO or test compound in 0.25 μl DMSO. […] Plates were incubated for 24 h at 37° C. in 5% CO2.
A multi-isoform immunoassay was used to quantify IFN-α in PBMC supernatants. Rabbit polyclonal antibody against human IFN-α (catalogue number 31101, Stratech Scientific) was diluted 1:10000 in assay buffer (RPMI 1640 containing 10% fetal calf serum, Invitrogen) and 20 μl was added to each well of an MSD® (Meso-Scale® Discovery) single small-spot 384-well GAR (goat anti-rabbit antibody coated) plate.
The plate was incubated for 1 h at room temperature with vigorous shaking. Following three washes with PBS, 20 μl of cell supernatant were added to each well of the plate. The plate was then incubated for 1 h at room temperature with vigorous shaking. A pair of monoclonal antibodies to IFN-α (catalogue numbers 21100 and 21112, Stratech Scientific) were labelled with sulfo-TAG (MSD®), diluted 1:1000 in assay buffer and 20 μl added to each well of the plate. The plate was further incubated for 1 h at room temperature with vigorous shaking. Following three washes with PBS, 30 μl of ×2 T buffer (MSD®) was added to each well and the plate was read on an MSD® Sector 6000 plate reader.
Data were normalized to internal plate controls of 1 uM resiquimod (n=16) and DMSO (n=16). pEC50 values were derived by 4-parameter curve fit with IRLS in ActivityBase, from 11-point, two-fold serial dilution of test compounds.

[2] = test system: IFN-α; test: Induction of Interferon-α using fresh human PBMCs; assay type: cell-based; details: PBMC, 24 hr incubation, relative to 2 μM resiquimod control, read-out: mean pEC50 for induction of IFN-α (converted)
Protocol: (§1) Assay for the Induction of Interferon-α and TNF-α Using Fresh Human Peripheral Blood Mononuclear Cells (PBMCs)
(§2) Compounds were dissolved and serially diluted in DMSO to give 100× the required concentration range using a Biomek® 2000. 1 ul of test compound was transferred into 96-well tissue culture plates using a Biomek® FX. Each compound was assayed in duplicate for each donor. Each plate contained a dilution series of the TLR7/8 agonist resiquimod as standard and Column 11 contained 1 μl of 200 μM resiquimod (giving a 2 μM final concentration, used to define the approximate maximal response to resiquimod).
(§3) Blood samples from two human donors were collected into sodium heparin (10 U/ml). 25 ml volumes of whole blood were overlaid onto 15 mls Histopaque® in LEUCOSEP™ tubes which were centrifuged at 800 g for 20 min and the band at the plasma/histopaque interface carefully removed. The collected cells were centrifuged at 2500 rpm for 10 min and the pellet resuspended in 10 ml of media (RPMI 1640 (Low endotoxin) supplemented with 10% v/v foetal calf serum (FCS, low endotoxin) 100 U/ml penicillin G, 100 μg/ml streptomycin, 10 mM L-glutamine and 1× non-essential amino acids). A 1:20 dilution of the cells was prepared using trypan blue & the cells counted using a haemocytometer. The PBMCs were diluted to give a final concentration of 2×10^6/ml and 100 ul of this cells suspension was added to wells containing 1 μl of diluted test compound.
(§4) The cell preparations were incubated for 24 hr (37° C., 95% air, 5% CO2) after which a sample of the supernatant was removed using the Biomek® FX and assayed for both IFN-α and TNF-α using the MSD® (Mesoscale Discovery) electrochemiluminescence assay platform. The IFN-α assay was carried out similarly to that described above. The TNF-α assay was carried out as per kit instructions (Cat No K111BHB).
(§5) Cytokine released was expressed as a percentage of the 2 μM resiquimod control (column 11). This percentage was plotted against compound concentration and the pEC50 for the response determined by non-linear least squares curve fitting. For the IFN-α responses generally a 4 parameter logistic model was selected. For the TNF responses where a clear maximum response was obtained (i.e. a well defined plateau in the response was observed) then a 4 parameter model was generally used. If the upper asymptote of the curve wasn't well defined then the curve fitting was generally constrained to a maximal response of 100% (i.e. to the response to 2 μM resiquimod) or to the response of the highest concentration tested if this was greater than the resiquimod response. Some curves were bell shaped for one or both cytokines and the cytokine data on the down slope of the bell shaped response (i.e. concentrations above those giving the maximal response) were generally excluded from the fit, usually with the exception of the concentration immediately above the peak response. Curve fitting thus concentrated on the up slope of the dose response curve.

[3] = test system: TNF-α; test: Induction of TNF-α using fresh human PBMCs; assay type: cell-based; details: PBMC, 24 hr incubation, relative to 2 μM resiquimod control, read-out: mean pEC50 for induction of TNF-α (converted)
Protocol: as §1, §2, §3, §4, §5

[4] = test system: Interferon-α; test: Induction of Interferon-α following intranasal dosing in the mouse; assay type: in vivo; details: female BALB/c mice, serum 2 hours after dosing, ELISA
Protocol: Assay for the Induction of Interferon-α Following Intranasal Dosing in the Mouse.
Compounds were dissolved in 0.2% Tween™ 80 in saline and administered intranasally (5 μl in total between the nostrils) to female BALB/c mice (n=6) under general anaesthesia. Animals were euthanased 2 hours after dosing and a terminal blood sample was taken and serum levels of Interferon-α measured using an ELISA assay.

[5] = test system: IL-5; test: Allergen-driven cytokine assay using fresh human PBMCs from atopic volunteers (IL-5); assay type: cell-based; details: at 0.04 μM, compared to the allergen control; PBMCs from three allergic donors, Timothy Grass antigen
Protocol: (§6) Allergen-Driven Cytokine Assay Using Fresh Human Peripheral Blood Mononuclear Cells (PBMCs) from Atopic Volunteers
(§7) An assay based on co-culture of atopic human donor derived peripheral blood mononuclear cells (PBMCs) with allergen and test compounds was developed. After 5-6 days culture, cell supernatants were assayed for a range of cytokines.
(§8) Each compound was assayed in triplicate at all concentrations.
(§9) Defibrinated human blood from volunteers known to be allergic to Timothy grass was centrifuged at 2500 rpm for 15 minutes. The upper layer of serum was collected and heat-inactivated at 56° C. for 30 minutes (HI-autologous serum). The lower layer of cells was resuspended in 50 ml PBS (+Ca+Mg), 25 ml diluted blood were overlaid onto 20 ml Lymphoprep in 50 ml tubes then centrifuged at 2500 rpm for 20 minutes at RT. The band at the serum/Lymphoprep interface was carefully removed. The collected cells were washed with PBS and re-suspended at 4×10^6/ml in growth medium with HI-autologous serum. PBMCs were seeded at 0.4×10^6 cells/well in flat-bottomed 96 well plates in the presence of 10 ug/ml Timothy Grass antigen (Alk Abello) and test compounds at appropriate concentrations in a total volume of 200 ul.
(§10) Plates were incubated at 37° C. in 5% CO2 for up to 6 days. The cell medium from each well was harvested and stored at −20° C. prior to analysis.

[6] = test system: IL-13; test: Allergen-driven cytokine assay using fresh human PBMCs from atopic volunteers (IL-13); assay type: cell-based; details: at 0.04 μM, compared to the allergen control; PBMCs from three allergic donors, Timothy Grass antigen
Protocol: as §6, §7, §8, §9, §10

Compound | EC50 [2] | EC50 [3] | EC50 [1] | mean serum levels of Interferon-α [4] | reduction of production of Th2 cytokine IL-5 [5] | reduction of production of Th2 cytokine IL-13 [6]
CCC[C@H](C)Oc1nc(N)c2[nH]c(=O)n(CCCCN3CCCCC3)c2n1 [Example 20, 6-Amino-2-{[(1S)-1-methylbutyl]oxy}-9-[4-(1-piperidinyl)butyl]-7,9-dihydro-8H-purin-8-one] | ≤ 0.001 µM | ≥ 0.316 µM | < 3.16 µM | – | – | –
CCCCOc1nc(N)c2[nH]c(=O)n(CCCCN3CCCC3)c2n1 [Example 5, 6-Amino-2-(butyloxy)-9-[4-(1-pyrrolidinyl)butyl]-7,9-dihydro-8H-purin-8-one] | < 0.0316 µM | > 3.16 µM | < 3.16 µM | – | – | –
CCC[C@H](C)Oc1nc(N)c2[nH]c(=O)n(CCCCN3CCCCCC3)c2n1 [Example 21, 6-Amino-9-[4-(hexahydro-1H-azepin-1-yl)butyl]-2-{[(1S)-1-methylbutyl]oxy}-7,9-dihydro-8H-purin-8-one] | ≤ 0.001 µM | ≥ 0.316 µM | < 3.16 µM | 20326 pg/mL | – | –
CCC[C@H](C)Oc1nc(N)c2[nH]c(=O)n(CCCCCN3CCCCC3)c2n1 [Example 22, 6-Amino-2-{[(1S)-1-methylbutyl]oxy}-9-[5-(1-piperidinyl)pentyl]-7,9-dihydro-8H-purin-8-one] | ≤ 0.001 µM | ≥ 0.316 µM | < 3.16 µM | 21029 pg/mL | ≥ 50% | ≥ 50%
CCCCOc1nc(N)c2[nH]c(=O)n(CCCCCCN3CCCCC3)c2n1 [Example 14, 6-Amino-2-(butyloxy)-9-[6-(1-piperidinyl)hexyl]-7,9-dihydro-8H-purin-8-one] | ≤ 0.01 µM | > 1 µM | < 3.16 µM | – | – | –

Second part, led by results:

EC50 [2] | EC50 [3] | Compound | EC50 [1] | mean serum levels of Interferon-α [4] | reduction of production of Th2 cytokine IL-5 [5] | reduction of production of Th2 cytokine IL-13 [6]
≤ 0.001 µM | ≥ 0.316 µM | CCCCOc1nc(N)c2[nH]c(=O)n(CCCCCCN3CCCCCC3)c2n1 [Example 15, 6-Amino-2-(butyloxy)-9-[6-(hexahydro-1H-azepin-1-yl)hexyl]-7,9-dihydro-8H-purin-8-one] | < 3.16 µM | – | – | –
≤ 0.01 µM | > 1 µM | CCCCOc1nc(N)c2[nH]c(=O)n(CCCCN3CCCCCC3)c2n1 [Example 7, 6-Amino-2-(butyloxy)-9-[4-(hexahydro-1H-azepin-1-yl)butyl]-7,9-dihydro-8H-purin-8-one] | < 3.16 µM | – | – | –
≤ 0.01 µM | > 1 µM | CCCCNc1nc(N)c2[nH]c(=O)n(CCCCN3CCCCCC3)c2n1 [Example 18, 6-Amino-2-(butylamino)-9-[4-(hexahydro-1H-azepin-1-yl)butyl]-7,9-dihydro-8H-purin-8-one] | < 3.16 µM | – | – | –
≤ 0.01 µM | > 1 µM | CCCCOc1nc(N)c2[nH]c(=O)n(CCCCN3CCCCC3)c2n1 [Example 6, 6-Amino-2-(butyloxy)-9-[4-(1-piperidinyl)butyl]-7,9-dihydro-8H-purin-8-one] | < 3.16 µM | – | – | –
≤ 0.01 µM | > 1 µM | CCCCOc1nc(N)c2[nH]c(=O)n(CCCCCN3CCCCCC3)c2n1 [Example 11, 6-Amino-2-(butyloxy)-9-[5-(hexahydro-1H-azepin-1-yl)pentyl]-7,9-dihydro-8H-purin-8-one] | < 3.16 µM | – | – | –
